This assay deals with activated sludge. The assay is described as follows: Activated sludge SBR reactor, biological nitrogen removal with added AHLs signal molecule. The following applies: for MLSS lower than that of the control group (without C4-HSL added): 4° C.; for MLSS of the reactor lower than that of the control group (without C4-HSL): after stable operation.
Setting [1] is: room temperature, 0, 10, 100 μg/L, after 74 cycles.

The results in this text go back to US20240262727A1, “METHOD FOR IMPROVING BIOLOGICAL NITROGEN REMOVAL EFFECT OF LOW-TEMPERATURE SEWAGE” (Sichuan University, priority 2023, published 2024).

For the compound `CCCC(=O)N[C@H]1CCOC1=O` [C4-HSL, N-butanoyl-L-homoserine lactone], the COD removal efficiency stood at 90% (10 μg/L added every 2 cycles, 10° C. (Example 1)) and 90% (100 μg/L, 10° C. (Example 2)). The “MLSS lower than that of the control group (without C4-HSL added)” value is 40% (10 μg/L) and 38% (100 μg/L). Further, the “TN average effluent concentration” value is, setting by setting: (10 μg/L, 10° C. (Example 1)) 11.40 mg/L; (100 μg/L, 10° C.) 12.86 mg/L. In addition, the “average NH4+—N removal efficiency” value by setting is: (10 μg/L, 10° C. (Example 1)) 99.69%; (100 μg/L, 4° C. (Example 4)) 98.8%; (100 μg/L, 10° C. (Example 2)) 99.85%. For the same compound, the “cycles after which TN removal efficiency reached stability” value by setting is: (10 μg/L, 10° C. (Example 1)) 27 cycles; (100 μg/L, 10° C.) 27 cycles. The “TN average removal efficiency” value turned out to be 64.97% (10 μg/L, 10° C., after stability (Example 1)) and 60.46% (100 μg/L, 10° C., after stability). The “MLSS of the reactor lower than that of the control group (without C4-HSL)” value runs as follows: (10 μg/L, 10° C.) 2%; (100 μg/L, 10° C.) 12%. The “TN removal efficiency and NH4+—N removal efficiency compared with not adding C4-HSL” value (low temperatures, Example 1 vs Comparative Example 1, FIG. 1 and 2) is recorded as “significantly improved”. Besides, the “effect of adding C4-HSL on the nitrogen removal effect” value (room temperature) is “little effect”. The ammonia-nitrogen removal efficiency entry under setting [1] is recorded as “not less than 99%”. Further, under setting [1], the “effluent TN” value is given as “not more than 15 mg/L”. For the same compound, under setting [1], the effluent ammonia-nitrogen concentration result is “around 0.1 mg/L”. Further, under setting [1], the “removal efficiency of COD” value was “not less than 90%”.
